# Measured values from the Kinase Knowledgebase extract (Sharma et al. 2016).
# Target: MAPK14 (human) (UniProt Q16539)
# Assay: Assessment of MAPK14 Kinase Activity
# Chain of MAPK14 (human) (Q16539 whole entry, looked up): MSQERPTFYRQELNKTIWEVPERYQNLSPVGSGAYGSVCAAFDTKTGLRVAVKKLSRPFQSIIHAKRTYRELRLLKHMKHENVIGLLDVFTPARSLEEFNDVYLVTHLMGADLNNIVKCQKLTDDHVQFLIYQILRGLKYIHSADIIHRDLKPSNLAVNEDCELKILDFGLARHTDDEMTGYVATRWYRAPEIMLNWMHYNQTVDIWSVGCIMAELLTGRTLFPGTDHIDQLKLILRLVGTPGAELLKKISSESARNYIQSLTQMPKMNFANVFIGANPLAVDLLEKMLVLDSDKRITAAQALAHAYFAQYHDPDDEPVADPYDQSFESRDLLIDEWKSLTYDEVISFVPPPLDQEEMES
row,Structure (SMILES),IC50 [nM]
1,Cc1ccc(NC(=O)Nc2sc(C(C)(C)C)cc2C(=O)N2CCNS(=O)(=O)CC2)cc1-c1ccc(CN2CCOCC2)nc1,< 100
2,Cc1ccc(NC(=O)Nc2sc(C(C)(C)C)cc2C(=O)N2CCN(C)C(=O)C2(C)C)cc1-c1ccc(-n2cccn2)nc1,< 100
3,Cc1ccc(NC(=O)Nc2sc(C(C)(C)C)cc2C(=O)N2CCNC(=O)C2(C)C)cc1C#CCN1CCN(C)CC1,< 100
4,Cc1ccc(NC(=O)Nc2sc(C(C)(C)C)cc2C(=O)N2CCN(C)C(=O)C2(C)C)cc1-c1ccc(CN2CCOCC2)cn1,< 100
5,Cc1ccc(NC(=O)Nc2sc(C(C)(C)C)cc2C(=O)N2CCNC(=O)C2(C)C)cc1-c1ccc(OCCCN2CCOCC2)nc1,< 100
6,C#Cc1cc(NC(=O)Nc2sc(C(C)(C)C)cc2C(=O)N2CCNC(=O)C2(C)C)ccc1C,< 100
7,COc1ccc(-c2cc(NC(=O)Nc3sc(C(C)(C)C)cc3C(=O)N3CCNC(=O)C3(C)C)ccc2C)cn1,< 100
8,CCc1ccc(-c2cc(NC(=O)Nc3sc(C(C)(C)C)cc3C(=O)N3CCNC(=O)C3(C)C)ccc2C)nc1,< 100
9,Cc1ccc(NC(=O)Nc2cc(C(C)(C)C)sc2C(=O)N2CCNC(=O)C2(C)C)cc1-c1ccc(N2CCOCC2)nc1,< 100
10,Cc1ccc(NC(=O)Nc2sc(C(C)(C)C)cc2C(=O)N2CCNC(=O)C2(C)C)cc1-c1cccc[n+]1[O-],< 100
11,Cc1ccc(NC(=O)Nc2sc(C(C)(C)C)cc2C(=O)N2CCNC(=O)C2(C)C)cc1-c1ccc(OCCN2CCOCC2)nc1,< 100
12,Cc1ccc(NC(=O)Nc2cc(C(C)(C)C)sc2C(=O)N2CCN(C)C(=O)C2(C)C)cc1-c1ccc(CN2CCOCC2)nc1,< 100
13,Cc1ccc(NC(=O)Nc2cc(C(C)(C)C)sc2C(=O)N2CCN(C(C)C)C(=O)C2(C)C)cc1-c1ccc(CN2CCOCC2)nc1,< 100
14,Cc1ccc(NC(=O)Nc2sc(C(C)(C)C)cc2C(=O)N2CCNC(=O)C2(C)C)cc1-c1ccc(N(C)C)nc1,< 100
15,COc1ccc(-c2cc(NC(=O)Nc3sc(C(C)(C)C)cc3C(=O)N3CCNC(=O)C3(C)C)c(F)cc2C)cn1,< 100
16,Cc1ccc(NC(=O)Nc2sc(C(C)(C)C)cc2C(=O)N2CCN(C)C(=O)C2(C)C)cc1-c1ccc(CN2CCCC2)nc1,< 100
17,Cc1ccc(NC(=O)Nc2sc(C(C)(C)C)cc2C(=O)N2CCNC(=O)C2(C)C)cc1-c1ccc(OCCN2CCNCC2)nc1,< 100
18,Cc1ccc(NC(=O)Nc2sc(C(C)(C)C)cc2C(=O)N2CCNC(=O)C2(C)C)cc1-c1ccc(CN2CCOCC2)nc1,< 100
19,Cc1ccc(NC(=O)Nc2sc(C(C)(C)C)cc2C(=O)N2CCNC(=O)C2(C)C)cc1C#C[Si](C)(C)C,< 100
20,Cc1ccc(NC(=O)Nc2sc(C(C)(C)C)cc2C(=O)N2CCC(=O)N(C)CC2)cc1-c1ccc(N2CCOCC2)cn1,< 100
21,Cc1ccc(NC(=O)Nc2cn(C(C)(C)C)nc2C(=O)N2CCNC(=O)C2(C)C)cc1-c1cccnc1,< 100
22,CCNC(=O)c1ccc(-c2cc(NC(=O)Nc3cn(C(C)(C)C)nc3C(=O)N3CCNC(=O)C3(C)C)ccc2C)cn1,< 100
23,Cc1ccc(NC(=O)Nc2cn(C(C)(C)C)nc2C(=O)N2CCN(C)C(=O)C2(C)C)cc1-c1ccc(C(C)C)nc1,< 100
24,Cc1ccc(NC(=O)Nc2sc(C(C)(C)C)cc2C(=O)N2CCN(C)C(=O)C2(C)C)cc1-c1ccc(NS(C)(=O)=O)nc1,< 100
25,Cc1ccc(NC(=O)Nc2sc(C(C)(C)C)cc2C(=O)N2CCNC(=O)C2(C)C)cc1-c1cnc(N2CCOCC2)nc1,< 100
26,COc1ccc(-c2cc(NC(=O)Nc3sc(C(C)(C)C)cc3C(=O)N3CCNC(=O)C3(C)C)cc(F)c2C)cn1,< 100
27,Cc1ccc(NC(=O)Nc2sc(C(C)(C)C)cc2C(=O)N2CCNC(=O)C2(C)C)cc1-c1ncccn1,< 100

row,Structure (SMILES),IC50 [nM]
1,Cc1ccc(NC(=O)Nc2sc(C(C)(C)C)cc2C(=O)N2CCNC(=O)C2(C)C)cc1-c1c(C)noc1C,< 100
2,CCNC(=O)c1ccc(-c2cc(NC(=O)Nc3cc(C(C)(C)C)sc3C(=O)N3CCN(C)C(=O)C3(C)C)ccc2C)cn1,< 100
3,Cc1ccc(NC(=O)Nc2sc(C(C)(C)C)cc2C(=O)N2CCN(C)C(=O)C2(C)C)cc1-c1ccc(C[N+]2([O-])CCOCC2)[n+]([O-])c1,100 to 1000
4,CNC(=O)c1ccc(-c2cc(NC(=O)Nc3sc(C(C)(C)C)cc3C(=O)N3CCNC(=O)C3(C)C)ccc2C)cn1,< 100
5,Cc1ccc(NC(=O)Nc2cc(C(C)(C)C)sc2C(=O)N2CCNC(=O)C2(C)C)cc1-c1ccc(CN2CCOCC2)nc1,< 100
6,Cc1ccc(NC(=O)Nc2sc(C(C)(C)C)cc2C(=O)N2CCNC(=O)C2(C)C)cc1-c1ccc(N2CCOCC2)cn1,< 100
7,Cc1cc(NC(=O)Nc2cc(C(C)(C)C)sc2C(=O)N2CCNC(=O)C2(C)C)cc(-c2ccc(N3CCOCC3)cn2)c1,< 100
8,Cc1ccc(NC(=O)Nc2sc(C(C)(C)C)cc2C(=O)N2CCNC(=O)C2(C)C)cc1C#CCOCCN1CCOCC1,< 100
9,CCNC(=O)c1ccc(-c2cc(NC(=O)Nc3sc(C(C)(C)C)cc3C(=O)N3CCN(C)C(=O)C3(C)C)ccc2C)cn1,< 100
10,Cc1ccc(NC(=O)Nc2sc(C(C)(C)C)cc2C(=O)N2CCN(C)C(=O)C2(C)C)cc1-c1ccc(C(=O)N2CCOCC2)nc1,< 100
11,Cc1nnc(-c2ccc(-c3cc(NC(=O)Nc4sc(C(C)(C)C)nc4C(=O)N4CCN(C)C(=O)C4(C)C)ccc3C)cn2)o1,< 100
12,Cc1nc(-c2cccc(NC(=O)Nc3sc(C(C)(C)C)cc3C(=O)N3CCNC(=O)C3(C)C)c2)cs1,< 100
13,CCc1ccc(-c2cc(NC(=O)Nc3sc(C(C)(C)C)cc3C(=O)N3CCNC(=O)C3(C)C)cc(F)c2C)cn1,< 100
14,Cc1ccc(NC(=O)Nc2sc(C(C)(C)C)cc2C(=O)N2CCNC(=O)C2(C)C)cc1-c1ccc(CN)nc1,< 100
15,Cc1ccc(NC(=O)Nc2sc(C(C)(C)C)cc2C(=O)N2CCNC(=O)C2(C)C)cc1C#CCOC1CCOCC1,< 100
16,Cc1ccc(NC(=O)Nc2sc(C(C)(C)C)cc2C(=O)N2CCNC(=O)C2(C)C)cc1-c1cc[n+]([O-])cc1,< 100
17,Cc1ccc(NC(=O)Nc2sc(C(C)(C)C)cc2C(=O)N2CCNC(=O)C2(C)C)cc1-c1ccc(N2CCC(N(C)C)C2)nc1 (centres undefined),< 100
18,CCc1ccc(-c2cc(NC(=O)Nc3cn(C(C)(C)C)nc3C(=O)N3CCN(C)C(=O)C3(C)C)cc(F)c2C)cn1,< 100
19,Cc1nnc(CN2CCN(C(=O)c3cc(C(C)(C)C)sc3NC(=O)Nc3ccc(C)c(-c4ccncc4)c3)C(C)(C)C2=O)o1,< 100
20,Cc1ccc(NC(=O)Nc2sc(C(C)(C)C)cc2C(=O)N2CCN(C)C(=O)C2(C)C)cc1-c1ccc(CN2CCN(C)CC2)nc1,< 100
21,Cc1ccc(NC(=O)Nc2sc(C(C)(C)C)cc2C(=O)N2CCNC(=O)C2(C)C)cc1-c1ccc(OCCCN2CCN(C)CC2)nc1,< 100
22,Cc1ccc(NC(=O)Nc2cn(C(C)(C)C)nc2C(=O)N2CCN(C)C(=O)C2(C)C)cc1-c1ccc(N2CCOCC2)cn1,< 100
23,COc1ccc(-c2cc(NC(=O)Nc3sc(C(C)(C)C)cc3C(=O)N3CCN(C)C(=O)C3(C)C)ccc2C)cn1,< 100
24,CCNC(=O)c1ccc(-c2cc(NC(=O)Nc3cc(C(C)(C)C)sc3C(=O)N3CCNC(=O)C3(C)C)ccc2C)cn1,< 100
25,Cc1ccc(-c2ccc(N3CCOCC3)cn2)cc1NC(=O)Nc1cc(C(C)(C)C)sc1C(=O)N1CCNC(=O)C1(C)C,< 100
26,Cc1ccc(NC(=O)Nc2sc(C(C)(C)C)cc2C(=O)N2CCNC(=O)C2(C)C)cc1-c1ccc(NCC(C)C)nc1,< 100
27,COCCOc1ccc(-c2cc(NC(=O)Nc3sc(C(C)(C)C)cc3C(=O)N3CCN(C)C(=O)C3(C)C)ccc2C)cn1,< 100
